Measured values: patent publication US12168673B2 (Mitopower, Inc., priority 2022, dated 2024)

Columns and labels:
human hepatocytes [1] = assay: Human hepatocyte stability
Method: 10 mM stock solution of test compound was prepared in DMSO and diluted to a concentration of 1 mM with DMSO. Working concentration of 2 μM was prepared by further dilution with PBS. Preincubation mixture of 150 μL of hepatocyte cell suspension (1,000,000 cells/mL, INVITROGRO HT medium buffer), was added to vials for preincubation for 10 min @37° C.
150 μL of 2 μM working stock of the test compound was added to the cell suspension and incubated at @37 C at 500 rpm. The reaction was stopped at 0, 15, 30, 60 and 90 min by precipitating 50 μL of the incubation mixture with 150 μL of acetonitrile. Samples were vortexed for 5 min at 1200 rpm and centrifuged at 4000 rpm for 10 min. 150 μL of the supernatant was diluted with 150 μL of water and injected in MS system (SCIEX, API 4500 Q Trap) for analysis.

[2] = test system: primary human hepatocytes; assay: NAD+ in primary human hepatocytes (Example 12); assay type: cell-based; details: 10 μM, four hours of incubation
Method: (§1) Cryopreserved primary human hepatocytes, sourced from Lonza were cultured and were seeded into 6 well dishes with 0.5 million cells per well. […] The cells were later spun down and extracted. The supernatant was tested via LCMS/MS for NAD^+.

human hepatocytes [3] = assay: Human hepatocyte clearance; assay type: in vitro ADME
Method: (§2) A hepatocyte vial was taken out from the liquid nitrogen tank and was thawed in a water bath maintained at 37° C. The thawed cell suspension was transferred into a torsion tube containing 50 mL of thawing media (Xenotech). The thawing media containing hepatocytes was centrifuged at 1000 rpm for 5 min, the supernatant was discarded and the pellet was resuspended in 2 ml of Xenotech OptiIncubate Media. The cells were counted by using a haemocytometer after mixing an aliquot of cell suspension with equal volume of trypan blue. The cell suspension was diluted to a working density of 2 million cells with DMEM media without FBS/incubation media.
(§3) The assay was performed in duplicates (n=2). 150 μL of 2 million cell working stock of hepatocyte cell suspension was added to a 24 well plate and incubated in a 37° C. incubator, with speed of 500 RPM for 10 min. 150 μL of 2 μM working stock of test compound was incubated separately. The reaction at 0, 15, 30, 60 and 90 min was stopped by precipitating 20 μL of incubation mixture with 200 μL of acetonitrile containing internal standard. […] The supernatant was separated and diluted 1:1 with water before injecting in LC-MS/MS analysis.

[4] = Human hepatocyte clearance; assay type: in vitro ADME; details: human hepatocytes, 1 μM; for half-life at 1 μM: 0-90 min, read-out: T½; for hepatocyte CLint at 1 μM: read-out: Intrinsic Clearance (CL Int)
Method: as §2, §3

[5] = test system: primary human hepatocytes; assay: NAD+ in primary human hepatocytes at 250 μM (Example 10); assay type: cell-based; details: four hours of incubation
Method: as §1

HepG2 cells = assay: Cellular NAD+ levels in HepG2 cells, NAD cycling assay; assay type: cell-based; details: for NAD+ level increase at the lowest concentration: HepG2, 10 μM
Method: HepG2 cells were seeded at densities of 1 million cells per well in a 6 well plate. The next day, cells were treated with test compounds for 4 hours and were harvested using the below protocol. Each well was washed once with 2 mL ice cold PBS which was removed and 400 μL 2M HClO4 (perchloric acid) was added to each well, which was scraped and the residue transferred to 1.5 mL tubes and spun down. 100 μL of the supernatant was transferred to a clean 1.5 mL vial and 150 μL KOH/MOPS 2M/0.6M (neutralization buffer) was added to each vial under vortex which was spun down. The pH was measured following the NAD cycling protocol.
NAD standards were prepared from 0 to 0.5 μM in water as per Table 7.
The cycling reaction was prepared as follows. 10 μl samples were added followed by water to bring the volume up to 25 μl. 25 μl of each standard was used in duplicates for the reaction. Then 50 μl of mix A (cycling mix) was added to the sample and standards. Mix A contained the following:
Reaction was initiated using 25 μL enzyme mix (15 U/ml of alcohol dehydrogenase+15 U/mL of malate dehydrogenase). The samples were incubated at 37° C. for 30 minutes in a water bath and the reaction terminated by heating in a water bath for 5 minutes at 80° C. Then 25 μl of the sample was used in the detection step. 100 μl mix B, which contains following components were added to the sample.
Reaction was initiated using a start reagent (prepared by mixing 10 μl of malate dehydrogenase and 10 μl of glutamate oxaloacetic transaminase in 1 ml of water. The reading were measured at 340 nm in a envision plate reader. The results are shown in FIGS. 4A-4D.

| SMILES | % Parent Remaining (human hepatocytes [1]; 0 mins) [%] | % Parent Remaining (human hepatocytes [1]; 15 mins) [%] | % Parent Remaining (human hepatocytes [1]; 30 mins) [%] | % Parent Remaining (human hepatocytes [1]; 60 mins) [%] | % Parent Remaining (human hepatocytes [1]; 90 mins) [%] | NAD+ level increase compared to untreated cells [2] | Remarks (clearance class) (human hepatocytes [3]) | half-life at 1 μM [4] [min] | hepatocyte CLint at 1 μM [4] [µL/min/1e6 cells] | NAD+ level increase compared to untreated cells [5] | NAD+ level increase at the lowest concentration (HepG2 cells) | clearance in human hepatocytes (in words) (human hepatocytes [1]) | NAD+ level increase compared to nicotinic acid (HepG2 cells; HepG2, all concentrations (10-250 μM)) |
| --- | --- | --- | --- | --- | --- | --- | --- | --- | --- | --- | --- | --- | --- |
| COC(=O)[C@@H](C)N[P@](=O)(OC[C@H]1OC(OC(=O)c2cccnc2)[C@H](O)[C@@H]1O)Oc1ccccc1 (single isomer, unassigned) [Compound 103] | 100 | 63 | 40 | 15 | 5 | statistically significant NAD^+ level increases | High | 22.2 | 31.3 | statistically significant NAD^+ level increases | statistically significant increase |  |  |
| COC(=O)[C@@H](C)N[P@@](=O)(OC[C@H]1OC(OC(=O)c2cccnc2)[C@H](O)[C@@H]1O)Oc1ccccc1 (single isomer, unassigned) [Compound 104] | 100 | 78 | 65 | 45 | 24 | statistically significant NAD^+ level increases | medium clearance | 48.1 | 14.4 | statistically significant NAD^+ level increases | statistically significant increase | medium clearance | statistically significant increase |
